The values below come from patent publication US9592221B2, “Antibacterial agents: aryl myxopyronin derivatives” (priority 2012, dated 2017).

pIC50: −log10 of the molar value. Converted amounts (≈) assume the structure as drawn. A value given as a limit tells only on which side of the number the result lay.

Test [1] has as its target E. coli RNA polymerase σ^70 holoenzyme (Escherichia coli, UniProt P0A8T7+P0A8V2). The test is described as follows: Fluorescence-detected RNA polymerase assay, E. coli RNA polymerase. Type of test: biochemical. As to conditions: read-out: IC50 E. coli RNAP.
For test [2], the system named is Staphylococcus aureus ATCC 12600. The test is described as follows: MIC, spiral gradient endpoint assay, S. aureus ATCC 12600. Type of test: cell-based. As to conditions: ATCC12600; Staphylococcus aureus ATCC 12600.
Test [3] has as its system Bacillus anthracis Vollum 1b. The test is described as follows: microbe, parasite or virus in culture. Conditions: Bacillus anthracis, VOLLUM1B, read-out: MIC B. anthracis Vollum-1b. Type of test: cell-based.
For test [4], the system named is Mycobacterium tuberculosis H37Rv. Kind of test: MIC, microplate Alamar Blue assay, M. tuberculosis. The test is classed as cell-based.
For test [5], the system named is Yersinia pestis C092. The test is described as follows: microbe, parasite or virus in culture. Type of test: cell-based. As to conditions: Yersinia pestis, C092, read-out: MIC Y. pestis C092.
For test [6], the system named is Burkholderia pseudomallei Human/Blood/OH/US/1994. Kind of test: microbe, parasite or virus in culture. Type of test: cell-based. Conditions: Burkholderia pseudomallei, read-out: MIC B. pseudomallei Human/Blood/OH.
Test [7] concerns Burkholderia mallei CHN7. Kind of test: microbe, parasite or virus in culture. Type of test: cell-based. As to conditions: Burkholderia mallei, CHN7, read-out: MIC B. mallei CHN7.
In test [8] the test system is Brucella melitensis 16M. The test is described as follows: microbe, parasite or virus in culture. Type of test: cell-based. Conditions: Brucella melitensis, 16M, read-out: MIC B. melitensis 16M.
In test [9] the test system is Francisella tularensis SCHU4. The test is described as follows: microbe, parasite or virus in culture. Type of test: cell-based. As to conditions: Francisella tularensis, SCHU4, read-out: MIC F. tularensis SCHU4.
Test [10] relates to Escherichia coli D21f2tolC. The test is described as follows: MIC, spiral gradient endpoint assay, E. coli D21f2tolC. Type of test: cell-based. As to conditions: Escherichia coli, D21F2TOLC, read-out: MIC E. coli D21f2toIC.
Test [11] has as its system Acinetobacter baumannii ATCC 19606. The test is described as follows: MIC, spiral gradient endpoint assay, A. baumannii. As to conditions: ATCC19606; Acinetobacter baumannii ATCC 19606. The test is classed as cell-based.

E. coli RNA polymerase σ^70 holoenzyme, sequence (P0A8T7 whole entry): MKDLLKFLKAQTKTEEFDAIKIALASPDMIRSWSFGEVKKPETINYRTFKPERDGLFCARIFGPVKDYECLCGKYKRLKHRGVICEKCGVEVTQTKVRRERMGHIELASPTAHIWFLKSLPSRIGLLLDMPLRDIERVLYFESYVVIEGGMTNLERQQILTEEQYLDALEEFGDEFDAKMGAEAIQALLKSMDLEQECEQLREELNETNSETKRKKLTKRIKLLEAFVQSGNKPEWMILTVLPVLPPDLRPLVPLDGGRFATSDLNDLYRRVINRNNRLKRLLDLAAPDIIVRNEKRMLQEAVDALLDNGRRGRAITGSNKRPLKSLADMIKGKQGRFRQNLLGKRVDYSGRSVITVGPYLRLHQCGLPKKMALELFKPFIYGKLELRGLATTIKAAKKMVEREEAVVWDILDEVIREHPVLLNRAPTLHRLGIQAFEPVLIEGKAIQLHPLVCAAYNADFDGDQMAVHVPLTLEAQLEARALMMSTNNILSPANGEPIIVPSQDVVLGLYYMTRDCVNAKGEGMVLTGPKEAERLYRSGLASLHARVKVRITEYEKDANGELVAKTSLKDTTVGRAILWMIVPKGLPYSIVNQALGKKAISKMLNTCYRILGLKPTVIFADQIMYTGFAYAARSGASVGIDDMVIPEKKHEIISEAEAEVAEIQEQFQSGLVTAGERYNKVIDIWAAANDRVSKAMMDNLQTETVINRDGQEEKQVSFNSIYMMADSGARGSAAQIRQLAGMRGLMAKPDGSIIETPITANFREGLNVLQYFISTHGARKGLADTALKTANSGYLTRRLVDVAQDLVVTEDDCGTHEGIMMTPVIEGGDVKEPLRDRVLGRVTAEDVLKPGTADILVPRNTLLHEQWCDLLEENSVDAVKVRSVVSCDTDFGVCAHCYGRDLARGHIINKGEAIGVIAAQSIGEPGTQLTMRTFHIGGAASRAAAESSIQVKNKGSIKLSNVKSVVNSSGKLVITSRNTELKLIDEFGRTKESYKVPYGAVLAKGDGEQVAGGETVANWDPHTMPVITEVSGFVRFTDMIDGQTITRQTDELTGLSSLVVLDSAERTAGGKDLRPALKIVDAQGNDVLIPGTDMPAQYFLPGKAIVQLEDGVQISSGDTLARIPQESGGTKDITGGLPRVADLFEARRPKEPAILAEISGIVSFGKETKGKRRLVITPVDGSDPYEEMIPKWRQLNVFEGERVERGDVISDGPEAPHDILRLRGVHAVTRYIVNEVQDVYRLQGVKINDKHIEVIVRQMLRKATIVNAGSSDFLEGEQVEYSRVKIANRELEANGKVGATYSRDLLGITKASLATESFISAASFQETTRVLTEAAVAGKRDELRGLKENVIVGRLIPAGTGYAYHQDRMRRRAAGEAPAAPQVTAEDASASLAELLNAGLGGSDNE
E. coli RNA polymerase σ^70 holoenzyme, sequence (P0A800 whole entry, further chain): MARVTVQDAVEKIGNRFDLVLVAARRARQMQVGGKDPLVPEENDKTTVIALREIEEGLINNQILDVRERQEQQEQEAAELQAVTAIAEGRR
E. coli RNA polymerase σ^70 holoenzyme, sequence (P0A8V2 whole entry): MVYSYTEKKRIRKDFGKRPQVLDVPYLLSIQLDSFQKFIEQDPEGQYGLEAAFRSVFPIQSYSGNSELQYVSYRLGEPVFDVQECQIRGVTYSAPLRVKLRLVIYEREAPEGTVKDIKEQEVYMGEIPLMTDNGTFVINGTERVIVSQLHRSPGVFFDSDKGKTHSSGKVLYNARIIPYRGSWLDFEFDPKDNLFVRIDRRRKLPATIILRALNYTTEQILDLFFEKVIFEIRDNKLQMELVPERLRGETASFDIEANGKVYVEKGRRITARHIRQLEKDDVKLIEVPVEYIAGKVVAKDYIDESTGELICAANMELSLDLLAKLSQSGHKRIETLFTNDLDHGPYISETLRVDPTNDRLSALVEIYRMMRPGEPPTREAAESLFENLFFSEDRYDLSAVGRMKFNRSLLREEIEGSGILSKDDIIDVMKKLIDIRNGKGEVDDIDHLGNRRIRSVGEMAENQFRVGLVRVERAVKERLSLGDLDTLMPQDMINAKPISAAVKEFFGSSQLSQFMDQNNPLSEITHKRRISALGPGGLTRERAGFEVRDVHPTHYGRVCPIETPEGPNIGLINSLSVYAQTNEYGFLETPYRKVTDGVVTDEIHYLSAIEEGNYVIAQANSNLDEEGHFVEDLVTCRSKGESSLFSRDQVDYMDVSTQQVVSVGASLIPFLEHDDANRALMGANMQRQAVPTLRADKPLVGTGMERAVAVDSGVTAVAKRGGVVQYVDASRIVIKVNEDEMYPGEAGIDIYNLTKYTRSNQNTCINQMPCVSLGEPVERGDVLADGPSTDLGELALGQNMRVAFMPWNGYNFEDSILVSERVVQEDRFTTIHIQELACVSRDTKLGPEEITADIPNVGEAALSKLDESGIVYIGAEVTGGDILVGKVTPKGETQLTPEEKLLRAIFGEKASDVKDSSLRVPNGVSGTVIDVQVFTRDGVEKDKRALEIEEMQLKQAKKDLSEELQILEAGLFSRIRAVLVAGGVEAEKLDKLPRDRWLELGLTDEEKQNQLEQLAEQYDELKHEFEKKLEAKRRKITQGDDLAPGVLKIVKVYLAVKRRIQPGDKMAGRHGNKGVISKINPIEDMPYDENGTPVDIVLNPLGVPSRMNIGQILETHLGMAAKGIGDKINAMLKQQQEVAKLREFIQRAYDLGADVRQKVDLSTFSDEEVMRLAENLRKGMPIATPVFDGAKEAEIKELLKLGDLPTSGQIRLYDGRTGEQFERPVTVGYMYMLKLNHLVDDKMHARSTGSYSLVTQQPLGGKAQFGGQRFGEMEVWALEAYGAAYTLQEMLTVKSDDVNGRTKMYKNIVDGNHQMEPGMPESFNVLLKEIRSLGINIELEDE
E. coli RNA polymerase σ^70 holoenzyme, sequence (P00579 whole entry, further chain): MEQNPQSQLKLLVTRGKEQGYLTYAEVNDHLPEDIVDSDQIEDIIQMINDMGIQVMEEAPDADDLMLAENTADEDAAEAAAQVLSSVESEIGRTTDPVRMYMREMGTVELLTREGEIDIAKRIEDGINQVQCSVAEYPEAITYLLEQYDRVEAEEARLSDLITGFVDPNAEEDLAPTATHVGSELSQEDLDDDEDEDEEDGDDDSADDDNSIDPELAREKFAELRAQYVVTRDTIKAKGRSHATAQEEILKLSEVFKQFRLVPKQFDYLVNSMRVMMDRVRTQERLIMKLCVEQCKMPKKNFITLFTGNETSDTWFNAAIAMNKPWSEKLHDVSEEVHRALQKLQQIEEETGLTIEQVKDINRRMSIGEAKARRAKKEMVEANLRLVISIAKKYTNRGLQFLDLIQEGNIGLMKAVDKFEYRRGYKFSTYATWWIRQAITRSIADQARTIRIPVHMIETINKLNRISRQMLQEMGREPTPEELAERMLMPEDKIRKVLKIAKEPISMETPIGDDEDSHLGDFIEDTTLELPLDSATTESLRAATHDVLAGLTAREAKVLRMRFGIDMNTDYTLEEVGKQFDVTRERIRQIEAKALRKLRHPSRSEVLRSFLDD
E. coli RNA polymerase σ^70 holoenzyme, sequence (P0A7Z4 whole entry, further chain): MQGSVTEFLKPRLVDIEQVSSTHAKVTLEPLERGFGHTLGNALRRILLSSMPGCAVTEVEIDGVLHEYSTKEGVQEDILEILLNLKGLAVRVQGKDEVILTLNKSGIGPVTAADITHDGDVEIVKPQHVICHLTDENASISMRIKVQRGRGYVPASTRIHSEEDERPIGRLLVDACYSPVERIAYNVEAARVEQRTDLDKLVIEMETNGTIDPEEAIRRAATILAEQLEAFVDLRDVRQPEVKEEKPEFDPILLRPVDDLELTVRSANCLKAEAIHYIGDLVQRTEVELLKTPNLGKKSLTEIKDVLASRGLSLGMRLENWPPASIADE

Regarding `COC(=O)N/C=C/CCC(C)c1cc(O)c(C(=O)C(C)=Cc2ccc(OCCC(C)(C)C)cc2)c(=O)o1` (mixture of isomers) [APY48, methyl (E)-5-(3-((E/Z)-3-(4-(3,3-dimethylbutoxy)phenyl)-2-methylacryloyl)-4-hydroxy-2-oxo-2H-pyran-6-yl)hex-1-enylcarbamate], in [1], the pIC50 is 6.05. Moreover, the MIC in [2] is 10 mg/L; in test [3], 6 mg/L; in [4], 10 mg/L; in test [5], greater than 50 mg/L; in test [6] it was greater than 50 mg/L; in test [7] it was 50 mg/L. In addition, the MIC in test [8] is 6 mg/L; in [9], 10 mg/L.

For `COC(=O)N/C=C/CCC(C)c1cc(O)c(C(=O)C(C)=Cc2cnc(CCC(C)C)s2)c(=O)o1` (mixture of isomers) [APY137, methyl ((1E)-5-(4-hydroxy-3-(3-(2-isopentylthiazol-5-yl)-2-methylacryloyl)-2-oxo-2H-pyran-6-yl)hex-1-en-1-yl)carbamate], the pIC50 in [1] was 8.00. Moreover, the MIC in test [2] turned out to be 1 mg/L; in test [3] it was 3 mg/L; in test [4] it was 6 mg/L; in [5] it was 10 mg/L; in test [10], 0.08 mg/L; in test [6], 30 mg/L. Further, the MIC in test [11] was greater than 40 mg/L; in test [7], 10 mg/L; in test [8] it was 6 mg/L; in [9], 50 mg/L.

On to `CCC(C)Oc1ccc2c(c1)cc(C=C(C)C(=O)c1c(O)cc(C(C)CC/C=C/NC(=O)OC)oc1=O)n2C` (stereo not drawn) [APY122, methyl ((1E)-5-(3-(3-(5-(sec-butoxy)-1-methyl-1H-indol-2-yl)-2-methylacryloyl)-4-hydroxy-2-oxo-2H-pyran-6-yl)hex-1-en-1-yl)carbamate], for which the pIC50 in test [1] is 7.00. For the same compound, the MIC in test [2] was greater than 40 mg/L; in test [3], 50 mg/L (≈ 93.2 µM); in test [4] it was greater than 50 mg/L; in test [5], greater than 50 mg/L; in [10], 0.5 mg/L (≈ 0.932 µM); in test [6] it was greater than 50 mg/L. In addition, the MIC in test [11] is greater than 40 mg/L; in [7], greater than 50 mg/L; in [8], greater than 50 mg/L; in test [9] it was 50 mg/L (≈ 93.2 µM).

`COC(=O)N/C=C/CCC(C)c1cc(O)c(C(=O)C(C)=Cc2ccc(OCC(F)(F)F)cc2)c(=O)o1` (mixture of isomers) [APY117, methyl ((1E)-5-(4-hydroxy-3-(2-methyl-3-(4-(2,2,2-trifluoroethoxy)phenyl)acryloyl)-2-oxo-2H-pyran-6-yl)hex-1-en-1-yl)carbamate]: the pIC50 in [1] is 7.00. The MIC in [2] was 2 mg/L; in [3], 10 mg/L; in [4], 10 mg/L; in test [5], 50 mg/L; in test [10], 0.4 mg/L; in test [6], greater than 50 mg/L. In addition, the MIC was greater than 40 mg/L in test [11], 50 mg/L in test [7], 10 mg/L in test [8] and greater than 50 mg/L in test [9].

As to `CCc1ccc(C=C(C)C(=O)c2c(O)cc(C(C)CC/C=C/NC(=O)OC)oc2=O)cc1` (mixture of isomers) [APY70, methyl (E)-5-(5-((E/Z)-3-(4-ethylphenyl)-2-methylacryloyl)-4-hydroxy-6-oxo-6H-pyran-2-yl)hex-1-enylcarbamate], the pIC50 in test [1] was less than 5.22. For the same compound, the MIC was 20 mg/L in [2]; 50 mg/L in test [3]; 30 mg/L in test [4]; 1 mg/L in [10]; greater than 50 mg/L in test [6]; greater than 40 mg/L in [11]. In addition, the MIC in test [7] was greater than 50 mg/L; in test [8] it was 30 mg/L; in [9] it was greater than 50 mg/L.

For `COC(=O)N/C=C/CCC(C)c1cc(O)c(C(=O)C(C)=Cc2ccc(CCC(F)(F)F)cc2)c(=O)o1` (mixture of isomers) [APY74, methyl (E)-5-(5-((E/Z)-3-(4-(3,3,3-trifluoropropyl)phenyl)-2-methylacryloyl)-4-hydroxy-6-oxo-6H-pyran-2-yl)hex-1-enylcarbamate], in test [1], the pIC50 is 7.40. Also, the MIC is 2 mg/L in [2]; 10 mg/L in test [3]; 10 mg/L in test [4]; 0.2 mg/L in test [10]; greater than 50 mg/L in test [6]; greater than 40 mg/L in test [11]. Further, the MIC was greater than 50 mg/L in [7], 10 mg/L in [8] and 50 mg/L in test [9].

As for `CCc1ccc(C=C(C)C(=O)c2c(O)cc(C(C)CC/C=C/NC(=O)OC)oc2=O)s1` (mixture of isomers) [APY64, methyl (E)-5-(5-((E/Z)-3-(5-ethylthiophen-2-yl)-2-methylacryloyl)-4-hydroxy-6-oxo-6H-pyran-2-yl)hex-1-enylcarbamate], the pIC50 in test [1] is 6.70. For the same compound, the MIC in test [2] is 9 mg/L; in test [3], 50 mg/L; in test [4], 30 mg/L; in test [10] it was 0.8 mg/L; in test [6] it was greater than 50 mg/L; in test [11], greater than 40 mg/L. Moreover, the results for the MIC in [7], in test [8] and in test [9] were greater than 50 mg/L, 10 mg/L and 50 mg/L, respectively.

Consider `CCCCc1ccc(C=C(C)C(=O)c2c(O)cc(C(C)CCCCNC(=O)OC)oc2=O)s1` (mixture of isomers) [APY67, methyl 5-(5-((E/Z)-3-(5-butylthiophen-2-yl)-2-methylacryloyl)-4-hydroxy-6-oxo-6H-pyran-2-yl)hexylcarbamate], for which the pIC50 in [1] is 6.00. Further, the MIC was 5 mg/L in test [2]; 30 mg/L in test [3]; 50 mg/L in test [4]; 0.5 mg/L in test [10]; greater than 50 mg/L in test [6]; greater than 40 mg/L in test [11]. The MIC in test [7] is greater than 50 mg/L; in test [8], 10 mg/L; in [9], 50 mg/L.

On to `COC(=O)N/C=C/CCC(C)c1cc(O)c(C(=O)C(C)=Cc2ccc(OCC3CCCC3)cc2)c(=O)o1` (mixture of isomers) [APY52], for which the pIC50 in [1] was 5.70. For the same compound, the MIC was 4 mg/L in test [2]; 2 mg/L in [3]; 30 mg/L in [4]; 0.4 mg/L in test [10]; greater than 50 mg/L in test [6]; greater than 40 mg/L in [11]. In addition, the values for the MIC in test [7], in test [8] and in test [9] were 50 mg/L, 3 mg/L and 30 mg/L, respectively.

Take `COC(=O)N/C=C/CCC(C)c1cc(O)c(C(=O)C(C)=Cc2ccc(OCC(C)C)cc2)c(=O)o1` (mixture of isomers) [APY53, methyl (E)-5-(4-hydroxy-3-((E/Z)-3-(4-isobutoxyphenyl)-2-methacryloyl)-4-hydroxy-2-oxo-2H-pyran-6-yl)hex-1-enylcarbamate]: the pIC50 in test [1] is 5.70. The MIC in [2] was 2 mg/L; in test [3] it was 3 mg/L; in test [4], 6 mg/L; in test [10] it was 0.4 mg/L; in test [6], greater than 50 mg/L; in test [11], greater than 40 mg/L. For the same compound, the MIC in test [7] was greater than 50 mg/L; in test [8] it was 10 mg/L; in [9], 50 mg/L.

In the case of `CCCc1ccc(C=C(C)C(=O)c2c(O)cc(C(C)CC/C=C/NC(=O)OC)oc2=O)s1` (mixture of isomers) [APY58, methyl (E)-5-(4-hydroxy-5-((E/Z)-2-methyl-3-(5-propylthiophen-2-yl)acryloyl)-6-oxo-6H-pyran-2-yl)hex-1-enylcarbamate], the pIC50 in [1] is 7.10. For the same compound, the MIC is 1 mg/L in [2]; 10 mg/L in test [3]; 10 mg/L in test [4]; 0.2 mg/L in test [10]; 50 mg/L in test [6]; greater than 40 mg/L in test [11]. Besides, the MIC in [7] was 50 mg/L; in test [8], greater than 50 mg/L; in test [9], 50 mg/L.

Consider `COC(=O)N/C=C/CCC(C)c1cc(O)c(C(=O)C(C)=Cc2ccc(CCC(C)(C)C)s2)c(=O)o1` (mixture of isomers) [APY56, methyl (E)-5-(4-hydroxy-5-((E/Z)-2-methyl-3-(5-(3,3-dimethylbutyl)thiophen-2-yl)acryloyl)-6-oxo-6H-pyran-2-yl)hex-1-enylcarbamate], for which the pIC50 in test [1] was 8.15. Also, the MIC in [2] amounted to 0.7 mg/L; in [3] it was 0.2 mg/L; in [4] it was 10 mg/L; in test [10], 0.2 mg/L; in test [6] it was 6 mg/L; in test [11], 10 mg/L. The values for the MIC in [7], in test [8] and in [9] were 3 mg/L, 3 mg/L and 6 mg/L, respectively.

Regarding `CCCCCc1ccc(C=C(C)C(=O)c2c(O)cc(C(C)CC/C=C/NC(=O)OC)oc2=O)s1` (mixture of isomers) [APY59, methyl (E)-5-(4-hydroxy-5-((E/Z)-2-methyl-3-(5-pentylthiophen-2-yl)acryloyl)-6-oxo-6H-pyran-2-yl)hex-1-enylcarbamate], in test [1], the pIC50 is 8.00. The MIC in test [2] turned out to be 0.3 mg/L; in test [3] it was 2 mg/L; in test [4], 30 mg/L; in test [10] it was 0.2 mg/L; in test [6] it was 10 mg/L; in [11] it was 7 mg/L. Further, the results for the MIC in [7], in test [8] and in test [9] were 6 mg/L, 6 mg/L and 10 mg/L, respectively.
